Measurements published in patent US10183943B2, “Heterocyclic compounds and their use in preventing or treating bacterial infections” (MUTABILIS, priority 2015, dated 2019).
pIC50: −log10 of the molar value. Like-named read-outs stand apart in the source and are kept apart here.

Experiments:
[1] = molecular target: T1, TEM-1 (Escherichia coli, UniProt P62593); assay: β-lactamase inhibitory activity, determination of IC50 (nitrocefin hydrolysis); type: biochemical
T1 construct: made in house; host or cells: E. coli
T1 sequence (P62593 24-286 limits assumed): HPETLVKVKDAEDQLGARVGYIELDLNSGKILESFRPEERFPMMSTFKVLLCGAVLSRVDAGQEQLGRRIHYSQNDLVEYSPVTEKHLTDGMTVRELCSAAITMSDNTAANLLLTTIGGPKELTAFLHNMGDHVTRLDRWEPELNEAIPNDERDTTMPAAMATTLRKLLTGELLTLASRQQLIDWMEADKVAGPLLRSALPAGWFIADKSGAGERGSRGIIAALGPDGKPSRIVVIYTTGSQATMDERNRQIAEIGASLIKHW

[2] = molecular target: T2, SHV-1 (Klebsiella pneumoniae, UniProt P0AD64); assay: as above; type: biochemical
T2 construct: made in house; host or cells: E. coli
T2 sequence (P0AD64 22-286): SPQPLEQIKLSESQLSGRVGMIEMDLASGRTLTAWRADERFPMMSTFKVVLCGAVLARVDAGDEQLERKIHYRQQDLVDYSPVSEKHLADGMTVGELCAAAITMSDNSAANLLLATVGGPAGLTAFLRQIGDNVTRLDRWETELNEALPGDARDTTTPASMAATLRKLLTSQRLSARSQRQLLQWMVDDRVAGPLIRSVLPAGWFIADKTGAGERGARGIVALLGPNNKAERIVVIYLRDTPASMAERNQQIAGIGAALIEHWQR

[3] = molecular target: T3, CTX-M-15 (Escherichia coli, UniProt Q9EXV5); assay: as above; type: biochemical
T3 construct: made in house; host or cells: E. coli
T3 sequence (Q9EXV5 entry or part of it): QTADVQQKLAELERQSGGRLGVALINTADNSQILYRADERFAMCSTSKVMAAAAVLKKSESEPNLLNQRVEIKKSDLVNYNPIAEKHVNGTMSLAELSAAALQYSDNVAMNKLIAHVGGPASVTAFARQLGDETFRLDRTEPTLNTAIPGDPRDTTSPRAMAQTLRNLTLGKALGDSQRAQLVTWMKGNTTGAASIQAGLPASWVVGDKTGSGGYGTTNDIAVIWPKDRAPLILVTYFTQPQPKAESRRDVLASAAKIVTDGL

[4] = molecular target: T4, KPC-2 (Klebsiella pneumoniae, UniProt Q9F663); assay: as above; type: biochemical
T4 construct: made in house; host or cells: E. coli
T4 sequence (Q9F663 25-293 limits assumed): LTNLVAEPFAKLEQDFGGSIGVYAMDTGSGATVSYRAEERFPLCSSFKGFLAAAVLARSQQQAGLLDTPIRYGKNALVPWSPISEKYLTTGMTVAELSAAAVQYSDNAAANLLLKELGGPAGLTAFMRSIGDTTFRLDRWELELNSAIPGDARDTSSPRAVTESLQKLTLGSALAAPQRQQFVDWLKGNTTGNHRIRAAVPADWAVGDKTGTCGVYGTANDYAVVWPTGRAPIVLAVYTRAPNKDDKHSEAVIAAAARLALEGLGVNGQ

[5] = molecular target: T5, OXA-1 (Escherichia coli, UniProt P13661); assay: as above; type: biochemical
T5 construct: made in house; host or cells: E. coli
T5 sequence (P13661 26-276): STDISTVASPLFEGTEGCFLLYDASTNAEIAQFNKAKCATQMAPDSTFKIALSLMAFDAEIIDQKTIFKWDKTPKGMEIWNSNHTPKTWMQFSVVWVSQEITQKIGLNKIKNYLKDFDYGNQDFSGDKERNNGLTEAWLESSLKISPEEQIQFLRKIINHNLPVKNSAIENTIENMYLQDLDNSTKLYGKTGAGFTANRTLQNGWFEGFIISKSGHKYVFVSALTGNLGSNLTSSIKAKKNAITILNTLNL

[6] = molecular target: T6, OXA-11 (Pseudomonas aeruginosa, UniProt Q06778); assay: as above; type: biochemical
T6 construct: made in house; host or cells: E. coli
T6 sequence (Q06778 21-266): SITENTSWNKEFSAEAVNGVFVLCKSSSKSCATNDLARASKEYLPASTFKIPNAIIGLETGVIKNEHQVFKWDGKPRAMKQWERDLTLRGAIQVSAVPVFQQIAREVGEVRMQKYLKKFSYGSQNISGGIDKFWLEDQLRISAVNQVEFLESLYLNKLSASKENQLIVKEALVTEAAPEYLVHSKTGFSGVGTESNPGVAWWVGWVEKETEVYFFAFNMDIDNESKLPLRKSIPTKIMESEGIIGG

[7] = molecular target: T7, OXA-15 (Pseudomonas aeruginosa, UniProt Q51574); assay: biochemical
T7 construct: made in house; host or cells: E. coli
T7 sequence (Q51574 22-275): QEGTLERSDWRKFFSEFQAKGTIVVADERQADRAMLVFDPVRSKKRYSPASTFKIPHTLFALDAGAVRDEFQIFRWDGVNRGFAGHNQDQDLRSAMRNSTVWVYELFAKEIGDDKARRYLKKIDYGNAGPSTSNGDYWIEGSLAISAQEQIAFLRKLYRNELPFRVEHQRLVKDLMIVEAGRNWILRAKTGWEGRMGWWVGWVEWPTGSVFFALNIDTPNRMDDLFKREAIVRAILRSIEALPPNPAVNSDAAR

[8] = molecular target: T8, OXA-48 (Klebsiella pneumoniae, UniProt Q6XEC0); assay: β-lactamase inhibitory activity, determination of IC50 (nitrocefin hydrolysis); type: biochemical
T8 construct: made in house; host or cells: E. coli
T8 sequence (Q6XEC0 23-265 limits assumed): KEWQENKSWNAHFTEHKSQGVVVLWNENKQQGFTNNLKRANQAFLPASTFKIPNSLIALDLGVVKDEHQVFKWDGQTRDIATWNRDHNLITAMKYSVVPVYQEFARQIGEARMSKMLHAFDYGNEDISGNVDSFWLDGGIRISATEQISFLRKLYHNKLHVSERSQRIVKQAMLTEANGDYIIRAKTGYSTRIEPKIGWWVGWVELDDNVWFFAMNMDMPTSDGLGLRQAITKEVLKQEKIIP

[9] = tested on: E. cloacae 260508 (TEM-1, CTX-M-15); assay: MIC of compounds alone, broth microdilution; type: cell-based; details: Enterobacter cloacae, read-out: MIC compounds of the invention alone
How it was run: (§1)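 Broth microdilution per CLSI M7-A7: compounds alone, in DMSO, challenged with log-phase bacteria at 5×10^5 cfu/mL in cation-adjusted Mueller-Hinton broth. Plates incubated 16-20 h at 35° C in ambient air; MIC is the lowest concentration preventing visible growth.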

[10] = tested on: E. cloacae P99 (AmpC); assay: MIC of compounds alone, broth microdilution; type: cell-based; details: Enterobacter cloacae, read-out: MIC compounds of the invention alone
How it was run: as §1

[11] = tested on: E. cloacae UFR51 (SHV-12, IMP-8); assay: MIC of compounds alone, broth microdilution; type: cell-based; details: Enterobacter cloacae, read-out: MIC compounds of the invention alone
How it was run: as §1

[12] = tested on: E. cloacae UFR85 (TEM-1, CTX-M-15, AmpC); assay: MIC of compounds alone, broth microdilution; type: cell-based; details: Enterobacter cloacae, read-out: MIC compounds of the invention alone
How it was run: as §1

[13] = tested on: E. coli 131119 (TEM-1, OXA-48); assay: MIC of compounds alone, broth microdilution; type: cell-based; details: Escherichia coli, read-out: MIC compounds of the invention alone
How it was run: as §1

[14] = tested on: E. coli RGN238 (OXA-1); assay: MIC of compounds alone, broth microdilution; type: cell-based; details: Escherichia coli, read-out: MIC compounds of the invention alone
How it was run: as §1

[15] = tested on: E. coli UFR18 (CTX-M-15, OXA-204); assay: MIC of compounds alone, broth microdilution; type: cell-based; details: Escherichia coli, read-out: MIC compounds of the invention alone
How it was run: as §1

[16] = tested on: E. coli UFR32 (TEM-1, VEB-1, OXA-10); assay: MIC of compounds alone, broth microdilution; type: cell-based; details: Escherichia coli, read-out: MIC compounds of the invention alone
How it was run: as §1

[17] = tested on: E. coli UFR61O (TEM-1, KPC-2); assay: MIC of compounds alone, broth microdilution; type: cell-based; details: Escherichia coli, read-out: MIC compounds of the invention alone
How it was run: as §1

[18] = tested on: E. coli UFR74 (SHV-1, DHA-1); assay: MIC of compounds alone, broth microdilution; type: cell-based; details: Escherichia coli, read-out: MIC compounds of the invention alone
How it was run: as §1

[19] = tested on: K. oxytoca UFR21 (TEM-1, CTX-M-15, OXA-48); assay: MIC of compounds alone, broth microdilution; type: cell-based; details: Klebsiella oxytoca, read-out: MIC compounds of the invention alone
How it was run: as §1

[20] = tested on: K. pneumoniae 6299 (TEM-1, SHV-11, OXA-163); assay: MIC of compounds alone, broth microdilution; type: cell-based; details: Klebsiella pneumoniae, read-out: MIC compounds of the invention alone
How it was run: as §1

[21] = tested on: K. pneumoniae BAA-1898 (TEM-1, SHV-11, SHV-12, KPC-2); assay: MIC of compounds alone, broth microdilution; type: cell-based; details: Klebsiella pneumoniae
How it was run: as §1

[22] = tested on: K. pneumoniae UFR24 (TEM-1, SHV-2, SHV-11, OXA-1, OXA-48, OXA-47); assay: MIC of compounds alone, broth microdilution; type: cell-based; details: Klebsiella pneumoniae, read-out: MIC compounds of the invention alone
How it was run: as §1

[23] = tested on: K. pneumoniae UFR39 (CTX-M-15, NDM-1); assay: MIC of compounds alone, broth microdilution; type: cell-based; details: Klebsiella pneumoniae, read-out: MIC compounds of the invention alone
How it was run: as §1

[24] = tested on: K. pneumoniae UFR77 (CMY-2); assay: MIC of compounds alone, broth microdilution; type: cell-based; details: Klebsiella pneumoniae, read-out: MIC compounds of the invention alone
How it was run: as §1

[25] = tested on: P. aeruginosa CIP107051 (TEM-24); assay: MIC of compounds alone, broth microdilution; type: cell-based; details: Pseudomonas aeruginosa
How it was run: as §1

[26] = tested on: E. cloacae UFR51 (SHV-12, IMP-8); assay: MIC of ceftazidime (CAZ) in combination with compounds at 4 μg/mL, broth microdilution; type: cell-based; details: strain UFR51; MIC of CAZ with compound fixed at 4 μg/mL
Method: (§2) Method 2: MIC of Compounds and Synergy with Ceftazidime Against Bacterial Isolates (Table 2 and 3)
(§3) Compounds of the present invention were assessed against genotyped bacterial strains alone or in combination with the β-lactam ceftazidime (CAZ). In the assays, MICs of said compounds, or of ceftazidime at fixed concentrations of said compounds were determined by the broth microdilution method according to the Clinical Laboratory Standards Institute (CLSI-M7-A7). Briefly, compounds alone according to the invention were prepared in DMSO and spotted (2 μL each) on sterile polystyrene plates (Corning, 3788). Compounds and ceftazidime dilutions were prepared in DMSO and spotted (1 μL each) on sterile polystyrene plates (Corning, 3788). Log phase bacterial suspensions were adjusted to a final density of 5×10^5 cfu/mL in cation-adjusted Mueller-Hinton broth (Becton-Dickinson) and added to each well (98 μL). Microplates were incubated for 16-20 h at 35° C. in ambient air. The MIC of the compounds was defined as the lowest concentration of said compounds that prevented bacterial growth as read by visual inspection. The MIC of ceftazidime at each compound concentration was defined as the lowest concentration of ceftazidime that prevented bacterial growth as read by visual inspection.

[27] = tested on: E. coli UFR41 (TEM-1, CTX-M-15, CMY-2, OXA-1, NDM-4); assay: as above; type: cell-based; details: strain UFR41; MIC of CAZ with compound fixed at 4 μg/mL
Method: as §2, §3

[28] = molecular target: AmpC (P99) (Enterobacter cloacae, UniProt P05364); assay: β-lactamase inhibitory activity, determination of IC50 (nitrocefin hydrolysis)
Sequence of AmpC (P99) (P05364 21-381): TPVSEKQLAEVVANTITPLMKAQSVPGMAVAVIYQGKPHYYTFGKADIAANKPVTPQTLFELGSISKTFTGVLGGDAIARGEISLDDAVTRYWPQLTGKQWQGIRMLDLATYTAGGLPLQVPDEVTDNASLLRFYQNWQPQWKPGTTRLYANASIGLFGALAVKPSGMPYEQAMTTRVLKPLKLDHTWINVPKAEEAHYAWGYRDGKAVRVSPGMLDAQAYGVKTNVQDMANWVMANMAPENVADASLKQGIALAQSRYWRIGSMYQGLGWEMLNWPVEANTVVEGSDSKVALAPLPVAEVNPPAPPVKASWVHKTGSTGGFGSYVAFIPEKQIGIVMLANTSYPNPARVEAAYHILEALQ

[29] = molecular target: AmpC P. aeruginosa (Pseudomonas aeruginosa, UniProt P24735); assay: as above
Sequence of AmpC P. aeruginosa (P24735 27-397): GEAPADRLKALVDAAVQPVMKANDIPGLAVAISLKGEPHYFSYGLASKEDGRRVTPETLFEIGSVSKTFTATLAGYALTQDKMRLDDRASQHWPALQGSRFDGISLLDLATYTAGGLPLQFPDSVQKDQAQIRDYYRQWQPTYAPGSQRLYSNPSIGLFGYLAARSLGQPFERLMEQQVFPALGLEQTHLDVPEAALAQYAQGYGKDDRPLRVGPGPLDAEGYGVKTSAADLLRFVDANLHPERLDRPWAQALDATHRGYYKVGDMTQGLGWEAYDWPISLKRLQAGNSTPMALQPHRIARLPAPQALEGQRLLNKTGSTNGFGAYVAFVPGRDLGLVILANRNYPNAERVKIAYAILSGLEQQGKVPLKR

[30] = tested on: E. cloacae UFR70 (TEM-1, CTX-M-15, CMY-2, OXA-1, Porin loss); assay: MIC of compounds alone, broth microdilution; type: cell-based; details: Enterobacter cloacae, read-out: MIC compounds of the invention alone
How it was run: as §1

[31] = tested on: E. coli 190317 (TEM-1, SHV-12, CTX-M-15, OXA-1); assay: MIC of compounds alone, broth microdilution; type: cell-based; details: Escherichia coli, read-out: MIC compounds of the invention alone
How it was run: as §1

[32] = tested on: E. coli UFR41 (TEM-1, CTX-M-15, CMY-2, OXA-1, NDM-4); assay: MIC of compounds alone, broth microdilution; type: cell-based; details: Escherichia coli, read-out: MIC compounds of the invention alone
How it was run: as §1

[33] = tested on: K. pneumoniae 160143 (TEM-1, SHV-1, CTX-M-15, KPC-2, OXA-1); assay: MIC of compounds alone, broth microdilution; type: cell-based; details: Klebsiella pneumoniae, read-out: MIC compounds of the invention alone
How it was run: as §1

[34] = tested on: K. pneumoniae 200047 (TEM-1, SHV-32, CTX-M-15, OXA-1); assay: MIC of compounds alone, broth microdilution; type: cell-based; details: Klebsiella pneumoniae, read-out: MIC compounds of the invention alone
How it was run: as §1

[35] = tested on: K. pneumoniae UFR68 (TEM-1, SHV-11, CTX-M-15, KPC-3); assay: MIC of compounds alone, broth microdilution; type: cell-based; details: Klebsiella pneumoniae, read-out: MIC compounds of the invention alone
How it was run: as §1

SMILES: O=C1N2CC(c3cccnc3)=CC(C2)N1OS(=O)(=O)[O-].[Na+] (centres unmarked) [Example 41, Sodium [3-(3-pyridyl)-7-oxo-1,6-diazabicyclo[3.2.1]oct-3-en-6-yl]sulfate]
- pIC50 [1]: 8.74
- pIC50 [2]: 8.44
- pIC50 ([3]; class (A), nitrocefin 200 μM, 30 min pre-incubation, read-out: IC50 β-lactamase CTX-M-15): 8.59
- pIC50 ([4]; class (A), nitrocefin 200 μM, 30 min pre-incubation, read-out: IC50 β-lactamase KPC-2): 8.05
- pIC50 ([5]; class (D), nitrocefin 200 μM, 30 min pre-incubation, read-out: IC50 β-lactamase OXA-1): 5.85
- pIC50 [6]: 6.08
- pIC50 [7]: 6.82
- pIC50 ([8]; class (D), nitrocefin 200 μM, 30 min pre-incubation, read-out: IC50 β-lactamase OXA-48): 8.85
- MIC [9]: 16 µg/mL
- MIC ([10]; strain P99 (E. cloacae)): 8 µg/mL
- MIC ([11]; strain UFR51 (E. cloacae)): 4 µg/mL
- MIC [12]: 16 µg/mL
- MIC ([13]; strain 131119 (E. coli)): 4 µg/mL
- MIC ([14]; strain RGN238 (E. coli)): 32 µg/mL
- MIC ([15]; strain UFR18 (E. coli)): 4 µg/mL
- MIC ([16]; strain UFR32 (E. coli)): 8 µg/mL
- MIC ([17]; strain UFR61O (E. coli)): 16 µg/mL
- MIC ([18]; strain UFR74 (E. coli)): 16 µg/mL
- MIC [19]: 16 µg/mL
- MIC ([20]; strain 6299 (K. pneumoniae)): 16 µg/mL
- MIC ([21]; BAA1898, strain BAA-1898 (K. pneumoniae), read-out: MIC compounds of the invention alone): 8 µg/mL
- MIC ([22]; strain UFR24 (K. pneumoniae)): 16 µg/mL
- MIC ([23]; strain UFR39 (K. pneumoniae)): 4 µg/mL
- MIC ([24]; strain UFR77 (K. pneumoniae)): 8 µg/mL
- MIC ([25]; strain CIP107051 (P. aeruginosa), read-out: MIC compounds of the invention alone): > 32 µg/mL
- MIC combination of CAZ and compounds of the invention at 4 μg/mL [26]: <0.25 µg/mL
- MIC combination of CAZ and compounds of the invention at 4 μg/mL [27]: <0.25 µg/mL
- pIC50 [28]: 7.40
- pIC50 [29]: 6.72

SMILES: O=C1N2CC(c3ncco3)=C[C@H](C2)N1OC(F)(F)C(=O)O (racemic) [Example 37]
- pIC50 [1]: 8.80
- pIC50 [2]: 7.89
- pIC50 [3]: 9.24
- pIC50 [4]: 7.28
- pIC50 [5]: 5.13
- pIC50 [6]: 6.68
- pIC50 [7]: 7.23
- pIC50 [8]: 8.74
- MIC [9]: 4 µg/mL
- MIC [10]: 8 µg/mL
- MIC [11]: 4 µg/mL
- MIC [30]: 2 µg/mL
- MIC [12]: 2 µg/mL
- MIC [13]: 2 µg/mL
- MIC [31]: 2 µg/mL
- MIC [14]: 2 µg/mL
- MIC [15]: 2 µg/mL
- MIC [16]: 2 µg/mL
- MIC [32]: 16 µg/mL
- MIC [17]: 8 µg/mL
- MIC [18]: 4 µg/mL
- MIC [19]: 4 µg/mL
- MIC [33]: 4 µg/mL
- MIC [34]: 2 µg/mL
- MIC [20]: 8 µg/mL
- MIC ([21]; BAA1898, read-out: MIC compounds of the invention alone): 4 µg/mL
- MIC [22]: 4 µg/mL
- MIC [23]: 8 µg/mL
- MIC [35]: 4 µg/mL
- MIC [24]: 4 µg/mL
- MIC ([25]; CIP107051, read-out: MIC compounds of the invention alone): > 128 µg/mL
- pIC50 [28]: 6.20
- pIC50 [29]: 6.62
